# Experimental data as given in patent EP1932852B1, “Novel taxane related peptides and uses thereof” (Campiani, Giuseppe, priority 2006, dated 2008).
# Experiments:
# [1] = tested on: mitochondria freshly isolated from A2780wt cells; assay: Flow cytometric assessment of Δψm in freshly isolated mitochondria (Rhodamine 123); format: cell-based, human; settings: PTX 10 µM, 60 min, without treatment 18%
# Method: (§1) Cell culture procedures and cell lines have been elsewhere described (Ferlini et al., 2003). Mitochondria were freshly isolated and mitochondrial transmembrane potential Δψm was assessed as previously described (Ferlini et al., 1995), using Rhodamine 123 (Molecular Probes) and a Facscan flow cytometer (Becton Dickinson).
# (§2) Here, they used the human ovary A2780 cancer cell line and its counterpart TC1 (Ferlini et al., 2003) with acquired PTX-resistance. […] Since the homology between the Bcl-2 and Bcl-xL is high, with the exception of the loop domain, TC1 cells were stably transfected with a construct in which the loop domain of Bcl-2 (aa 35-91) was deleted and replaced with a linker sequence of four alanine residues, as previously described by Chang et al. (Chang et al., 1997). These cells are thereafter referred to as TC1 Bcl-2Δ. Mitochondria were freshly isolated from these cells and were treated with PTX (10 µM). This concentration has a clinical relevance since it corresponds to the intracellular concentration achievable in patients. (Andre et al., 2000).
# (§3) The status of mitochondrial transmembrane potential (Δψm) was then monitored using the cationic fluorochrome Rhodamine 123 and flow cytometry. Results of these experiments are depicted in Fig. 1B. […] In fact, as reported in Fig. 1B the percentage of mitochondria with full leakage of the Δψm pass from 18% to 78%. […] In TC1-Bcl-2 cells, the sensitivity to PTX treatment was restored and again the vast majority of treated mitochondria were able to open the PTPC upon PTX treatment and dissipate the Δψm (from 8% to 82%). […] Taken together, these findings indicate that PTX is able to convert Bcl-2 in a factor proficient to activate the opening of PTPC and that such activity requires the presence of Bcl-2 loop domain, since it is not longer detectable in mitochondria from TC1-Bcl-2Δ cells.
# [2] = tested on: mitochondria freshly isolated from TC1 cells; assay: as above; format: cell-based, human; settings: PTX 10 µM, 60 min; mitochondria from TC1 (undetectable Bcl-2); without treatment 16%
# Method: as §1, §2, §3
# [3] = tested on: mitochondria freshly isolated from TC1-Bcl-2 cells; assay: as above; format: cell-based, human; settings: PTX 10 µM, 60 min; mitochondria from TC1-Bcl-2; without treatment 8%
# Method: as §1, §2, §3
# [4] = tested on: mitochondria freshly isolated from TC1-Bcl-2Δ cells; assay: as above; format: cell-based, human; settings: PTX 10 µM, 60 min; mitochondria from TC1-Bcl-2Δ; without treatment 14%
# Method: as §1, §2, §3
# Bcl2/Nur77 complex = biological target: T1, Bcl2/Nur77 complex (Homo sapiens, UniProt P10415); assay: Co-immunoprecipitation of Nur77 with Bcl-2 in the presence of PTX; format: binding; settings: whole cell lysates from A2780, PTX 10 µM, 2 h at 4 °C
# T1 construct: endogenous in cells; host or cells: A2780 (human ovarian cancer) whole cell lysate
# T1 sequence (P10415 whole entry, one chain of several): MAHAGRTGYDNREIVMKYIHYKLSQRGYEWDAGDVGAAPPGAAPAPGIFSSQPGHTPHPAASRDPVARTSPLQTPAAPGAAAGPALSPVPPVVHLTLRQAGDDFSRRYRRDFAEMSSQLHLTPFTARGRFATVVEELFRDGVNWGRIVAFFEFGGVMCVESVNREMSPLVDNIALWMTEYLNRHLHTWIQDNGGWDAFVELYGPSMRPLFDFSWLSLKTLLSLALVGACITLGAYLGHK
# Method: (§4) Cells, harvested in cold phosphate-buffered saline, were extracted for 30 min at 4 °C in lysis buffer (50 mM Tris-HCl, pH 7.4, 150 mM NaCl, 1% NP-40) containing 1mM DTT, protease inhibitor cocktail (Roche) and phosphatase inhibitors (50 mM NaF, 0.2 mM Na3VO4). Mitochondria isolation was performed as previously described (Ferlini et al., 2003). After centrifugation, supernatants (300 µg from total lysates and 100 µg from mitochondrial extracts) were immunoprecipitated at 4 °C overnight in lysis buffer by adding protein A/G plus-agarose beads (Santa Cruz Biotechnology) after 2 h of incubation with 2 µg of the following antibodies: anti-Bcl-2 (N19, Santa Cruz Biotechnology), anti-Bcl-2 (clone 124, Dako), anti-Bcl-2 BH3 domain (Abgent), anti-Nur77 (Imgenex), anti-β-tubulin (H235, Santa Cruz Biotechnology), anti-class III β-tubulin polyclonal antibody (Covance) and isotype-matched non-immune IgG (Sigma) as control. […]
# The significant similarity between the binding sites of the two PTX target proteins resulted from molecular modeling studies prompted the authors to investigate the possibility that PTX is a peptidomimetic compound. […] In order to assess this hypothesis, recombinant histidine-tagged Nur77 was purified and the interaction with in vitro produced Bcl-2 and Bcl-2Δ labeled with ^35S-methionine was analyzed. […]
# Bcl-2 = assay: Western blot of Bcl-2 in mitochondrial extracts (mobility shift); format: cell-based, human; settings: A2780wt treated 24h with PTX 1 µM
# Method: as §4
# It has already been shown that Bcl-2 is phosphorylated following exposure to PTX and that phosphorylation occurs in the disordered loop of Bcl-2 (Haldar et al., 1996; Fang et al., 1998). In order to investigate if Nur77, like PTX, is able to induce Bcl-2 mobility shifts, A2780 and TC1 cell lines overexpressing Nur77 (thereafter referred to as A2780Nur77 and TC1Nur77) were established and Bcl-2 status was analysed. […]
smiles,measurement,setting,value
"CC(=O)O[C@H]1C(=O)[C@@]2(C)[C@H]([C@H](OC(=O)c3ccccc3)[C@]3(O)C[C@H](OC(=O)[C@H](O)[C@@H](NC(=O)c4ccccc4)c4ccccc4)C(C)=C1C3(C)C)[C@]1(OC(C)=O)CO[C@@H]1C[C@@H]2O [PTX, paclitaxel]",percentage of mitochondria with full leakage of the Δψm,[1],78%
same,number of mitochondria with the leakage of Δψm,[2],26%
same,mitochondria that open the PTPC and dissipate the Δψm,[3],82%
same,mitochondria with changed Δψm status,[4],20%
same,displacement of Nur77 from Bcl-2,Bcl2/Nur77 complex,able to displace Nur77 from Bcl-2
same,slow mobility band of Bcl-2,Bcl-2,slow mobility band was detectable
